Where two headings read alike, the source gives them in different places.
Columns and labels:
[1] = active ingredient loading of carrier particles made by spray drying; assay type: physicochemical; conditions: spray drying process
Excerpt: The carrier particles which are provided fulfil their purpose when they are loaded with an active ingredient, in particular a pharmaceutical active ingredient. This may, for example, be carried out by means of a spray drying process in accordance with claim 22, in which the active ingredient and the PGFE or PGFEs are initially dissolved and/or suspended in a suitable organic solvent and then are separated from the solvent once more by spray drying. Examples of suitable solvents are the ether tetrahydrofuran, the alcohol ethanol, the ketone acetone, the ester ethyl acetate or the alkane heptane. It has been shown that by means of spray drying, loading with a pharmaceutical active ingredient of up to 30% by weight is possible.
Lipophilic carrier particles in accordance with claim 1 can advantageously be loaded with pharmaceutical active ingredients from the group formed by non-steroidal antirheumatic agents.

[2] = cited from earlier work
[3] = contact angle with purified water (hydrophobicity) and its storage stability; assay type: physicochemical; conditions: after 16 weeks at room temperature (20° C.) and at 40° C.
Method: An advantageous property of the PGFEs for lipophilic carrier particles in accordance with claim 1 which should be considered is the hydrophobicity, which can be determined by determining the contact angle. The determination of the hydrophobicity is carried out by determining the contact angle between the PGFE in the solid physical state and a droplet of purified water. According to Young's equation, cos θ=(γSV−γSL)/γLV, wherein γSL is the interfacial tension between the PGFE and water, γLV is the interfacial tension of the water droplet and γSV is the surface tension between the PGFE and the surrounding air. θ is the contact angle. Thus, the larger the contact angle θ, the higher is the surface tension between the PGFE and the water and the higher is the hydrophobicity of the PGFE under investigation. The contact angles for the proposed polyglycerol fatty acid esters also correlate with the HLB value which is often used in pharmaceutical technology, which is on a scale of 0 to 20 and provides information regarding the ratio of lipophilic to hydrophilic molecular fractions, wherein the hydrophilic fraction increases with increasing HLB value. […]

Row | loading of the carrier particles with active ingredient [1] | contact angle deviation from starting value on storage [3] [°] | Compound | increase in the crystal thickness ([2]; a- to b-modification transformation) | average lamellar structures per subcellular unit ([2]; a-modification) | average lamellar structures per subcellular unit ([2]; after complete transformation into the b-modification)
1 | up to 30 % by weight | – | CC(C)Cc1ccc(C(C)C(=O)O)cc1 (centres unmarked) [ibuprofen] | – | – | –
2 | – | 40 | CCCCCCCCCCCCCCCCCC(=O)OCC(COC(=O)CCCCCCCCCCCCCCCCC)OC(=O)CCCCCCCCCCCCCCCCC [glycerol tristearate] | approximately 67% | 6 | 10.5
